# In paper PMC7870626, “Neurotoxicity and underlying cellular changes of 21 mitochondrial respiratory chain inhibitors” (Archives of Toxicology, 2021):
# Assays:
# cI = target: T1, cI (Homo sapiens, UniProt O75251+O75306+P03886); format: cell-based; settings: permeabilized LUHMES; capsaicin 50 µM, mepronil 100 µM
# T1 construct: endogenous in cells; host or cells: LUHMES cells, digitonin-permeabilized
# Method: (§1) To investigate individual respiratory chain complexes, a method developed earlier and described extensively was used (Delp et al. [2019]). In brief, LUHMES cells were seeded at a density of 205,000 cells/cm^2 in PM into Agilent Seahorse XFe24-well plates. […] To reduce data variability, internal normalization of the OCR of each well was done relative to its value after equilibration.
# cII = target: T2, cII (Homo sapiens, UniProt O14521+P21912+Q99643); assay: Respiratory chain complex activity in permeabilized LUHMES cells: cII; format: cell-based; settings: mepronil at 100 µM
# T2 construct: endogenous in cells; host or cells: LUHMES cells, digitonin-permeabilized
# T2 sequence (P21912 29-280): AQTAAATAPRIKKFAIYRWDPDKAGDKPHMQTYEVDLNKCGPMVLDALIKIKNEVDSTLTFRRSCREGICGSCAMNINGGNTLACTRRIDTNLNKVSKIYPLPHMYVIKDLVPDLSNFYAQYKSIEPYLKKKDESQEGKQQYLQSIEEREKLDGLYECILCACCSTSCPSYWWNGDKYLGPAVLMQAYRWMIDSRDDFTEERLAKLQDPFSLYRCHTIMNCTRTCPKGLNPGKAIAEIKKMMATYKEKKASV
# T2 sequence (Q99643 30-169): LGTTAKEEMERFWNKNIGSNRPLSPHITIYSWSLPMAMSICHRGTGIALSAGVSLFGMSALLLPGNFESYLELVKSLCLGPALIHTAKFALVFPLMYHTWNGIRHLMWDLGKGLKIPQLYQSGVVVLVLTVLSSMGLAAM
# T2 sequence (O14521 57-159): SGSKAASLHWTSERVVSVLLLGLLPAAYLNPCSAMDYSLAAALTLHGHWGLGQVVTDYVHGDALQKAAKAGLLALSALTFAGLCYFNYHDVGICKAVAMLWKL
# T2 sequence (P31040 43-664 partner): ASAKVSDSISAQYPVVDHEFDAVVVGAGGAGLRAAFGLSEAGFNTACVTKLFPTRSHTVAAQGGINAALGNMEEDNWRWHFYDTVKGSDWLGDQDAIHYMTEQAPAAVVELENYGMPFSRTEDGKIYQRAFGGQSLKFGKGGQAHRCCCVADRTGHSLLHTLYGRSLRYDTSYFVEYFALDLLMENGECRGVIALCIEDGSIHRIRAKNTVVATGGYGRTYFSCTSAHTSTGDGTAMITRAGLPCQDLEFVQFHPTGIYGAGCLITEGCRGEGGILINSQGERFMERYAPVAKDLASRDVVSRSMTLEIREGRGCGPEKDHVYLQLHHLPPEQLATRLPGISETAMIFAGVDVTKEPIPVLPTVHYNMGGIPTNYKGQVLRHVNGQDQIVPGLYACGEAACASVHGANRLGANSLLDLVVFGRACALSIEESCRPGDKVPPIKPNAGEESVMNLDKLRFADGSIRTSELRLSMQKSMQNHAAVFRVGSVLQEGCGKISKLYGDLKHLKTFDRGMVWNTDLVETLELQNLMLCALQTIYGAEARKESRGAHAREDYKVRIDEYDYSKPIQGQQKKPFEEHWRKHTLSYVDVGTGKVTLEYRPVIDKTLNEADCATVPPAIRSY
# Method: as §1
# LUHMES cells = format: cell-based, human; settings: 0.20 µM, 24 h, vs 0.1% DMSO
# Method: Cells were cultured and treated as described above for the NeuriTox assay. On d3, after 24 h treatment, culture medium was replaced by 33 µl/well 1 × Biospyder lysis buffer. After 15 min at room temperature, plates were sealed and frozen at -80 °C to complete lysis. Samples were analyzed at Bioclavis (Glasgow) using the TempO-Seq technique and the EU-ToxRisk v2.0 gene probe panel covering ca. 3000 genes (Yeakley et al. [2017]). All genes are listed in the supplementary excel file (containing also all gene regulations). Briefly, a 50 bp fragment of the target gene was amplified. The amplification step also introduced sample-specific barcodes. This allowed pooling of all samples and standard next-generation sequencing of the ensemble. Afterward, adapters were used to allocate the sequenced fragments to the correct samples. Finally, the alignment of all sequenced fragments (FASTQ files) for each sample to the collection of reference 50 bp oligonucleotides was performed for the quantification of reads per gene, also known as the read count values. In a pre-filtering step, samples with a total count < 0.2 million and genes with an average count < 1.5 were removed.
# To correct for both read depth and RNA composition, the DESeq2′s median of ratios normalization was applied. The analysis of differentially expressed genes (DEG) of each treatment against the control group was done by the Wald test implemented in DESeq2/R (Love et al. [2014]), including an FDR correction for p-adjusted ≤ 0.05. […] A curve was fit through these concentration–response data to obtain EC10DEG. For comparability, all DEG data were normalized to a positive control. […] The EC10DEG was calculated using an established online open access BMC calculator (BMCeasy) (Krebs et al. [2020]).
# T1 sequence (O75306 34-463): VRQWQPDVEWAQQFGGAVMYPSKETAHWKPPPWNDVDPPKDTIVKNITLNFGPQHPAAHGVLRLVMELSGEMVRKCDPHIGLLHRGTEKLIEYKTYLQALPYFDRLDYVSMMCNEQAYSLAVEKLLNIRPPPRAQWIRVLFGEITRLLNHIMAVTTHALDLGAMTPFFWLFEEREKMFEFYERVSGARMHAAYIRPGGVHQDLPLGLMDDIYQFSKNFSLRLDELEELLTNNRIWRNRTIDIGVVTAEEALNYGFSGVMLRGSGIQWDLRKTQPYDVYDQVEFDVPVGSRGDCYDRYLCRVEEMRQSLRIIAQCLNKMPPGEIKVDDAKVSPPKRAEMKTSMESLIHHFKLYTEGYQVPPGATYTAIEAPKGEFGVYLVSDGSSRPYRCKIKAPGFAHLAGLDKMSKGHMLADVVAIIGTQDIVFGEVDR
# T1 sequence (P03886 whole entry): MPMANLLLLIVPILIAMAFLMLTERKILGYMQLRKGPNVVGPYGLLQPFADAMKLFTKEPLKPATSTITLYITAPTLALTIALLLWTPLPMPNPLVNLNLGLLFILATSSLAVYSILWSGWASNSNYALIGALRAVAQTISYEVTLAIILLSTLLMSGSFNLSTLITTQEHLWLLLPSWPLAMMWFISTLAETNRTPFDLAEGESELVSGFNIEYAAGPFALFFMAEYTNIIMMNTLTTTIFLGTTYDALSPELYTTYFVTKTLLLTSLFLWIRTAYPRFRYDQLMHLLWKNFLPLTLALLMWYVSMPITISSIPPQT
# T1 sequence (O75251 39-213): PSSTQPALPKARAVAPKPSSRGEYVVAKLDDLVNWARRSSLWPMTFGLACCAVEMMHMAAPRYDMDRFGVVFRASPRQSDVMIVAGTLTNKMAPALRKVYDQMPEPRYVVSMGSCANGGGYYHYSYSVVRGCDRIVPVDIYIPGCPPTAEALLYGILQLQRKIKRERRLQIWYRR
smiles,measurement,setting,value
Cc1ccccc1C(=O)Nc1cccc(OC(C)C)c1 [Mepronil],Inhibition of cI activity (in words),cI,weakly affected cI
same,Inhibition of cII activity (in words),cII,"significant, but weak inhibitor"
same,log2FoldChange AARS,LUHMES cells; gene AARS,0.46 log2
same,log2FoldChange AASDHPPT,LUHMES cells; gene AASDHPPT,0.19 log2
same,log2FoldChange AATF,LUHMES cells; gene AATF,0.22 log2
same,log2FoldChange ABCA1,LUHMES cells; gene ABCA1,0.65 log2
same,log2FoldChange ABCA6,LUHMES cells; gene ABCA6,0.20 log2
